Data reported in patent publication US20260232827A1, “ANTIBODY-DRUG CONJUGATES TARGETING NAPI2B AND METHODS OF USE” (Zymeworks BC Inc., priority 2023, published 2026).
Where two headings read alike, the source gives them in different places.

Assays:
human NaPi2b = target: T1, human NaPi2b (Homo sapiens, UniProt O95436); assay: Competition binding (epitope binning) by flow cytometry, transfected HEK293-6e cells; settings: unlabeled competitor 100 μg/mL, detection antibody 1 μg/mL
T1 construct: Full length human NaPi2b; host or cells: HEK293-6e
T1 sequence (O95436 1-690): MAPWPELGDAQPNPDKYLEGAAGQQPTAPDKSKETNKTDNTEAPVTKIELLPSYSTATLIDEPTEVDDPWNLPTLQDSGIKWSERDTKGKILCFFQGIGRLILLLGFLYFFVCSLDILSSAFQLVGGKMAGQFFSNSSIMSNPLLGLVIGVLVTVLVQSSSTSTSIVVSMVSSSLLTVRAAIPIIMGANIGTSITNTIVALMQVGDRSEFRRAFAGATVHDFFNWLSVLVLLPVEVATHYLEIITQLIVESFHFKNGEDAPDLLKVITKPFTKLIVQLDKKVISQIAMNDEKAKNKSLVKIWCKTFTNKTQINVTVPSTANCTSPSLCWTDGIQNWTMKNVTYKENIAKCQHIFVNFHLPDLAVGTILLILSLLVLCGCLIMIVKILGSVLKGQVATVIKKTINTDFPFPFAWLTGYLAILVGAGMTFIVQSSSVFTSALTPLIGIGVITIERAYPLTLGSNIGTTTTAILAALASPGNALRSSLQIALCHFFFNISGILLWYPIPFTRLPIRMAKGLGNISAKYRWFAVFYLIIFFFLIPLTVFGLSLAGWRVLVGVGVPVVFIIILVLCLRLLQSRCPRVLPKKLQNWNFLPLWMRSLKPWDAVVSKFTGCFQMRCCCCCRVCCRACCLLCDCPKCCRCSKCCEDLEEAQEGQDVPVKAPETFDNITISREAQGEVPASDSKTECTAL
Experimental: Binding was assessed by flow cytometry using HEK293-6e cells as described below.
HEK293-6e cells were transfected for ~24 hours to transiently express human NaPi2b (1 μg of pTT5-NaPi2b per 1 million cells) or transfected with GFP (ATUM, Menlo Park, CA; pD2610-v23, also 1 μg of DNA per 1 million cells). Following transfection, human NaPi2b-expressing HEK296-6e cells and transfected GFP-expressing HEK296-6e cells were mixed at 4:1 ratio. Each well of a V-bottom 96-well plate was seeded with 100,000 cells of the mixture and incubated with 100 μg/mL of unlabeled competitor anti-NaPi2b antibody for an hour on ice. Post incubation, cells were washed and stained with 1 μg/mL of AF647-conjugated anti-NaPi2b detection antibodies for an hour on ice. Following staining and washing, fluorescence was detected by flow cytometry on a BD LSRFortessa™ Cell Analyzer (BD Biosciences, Franklin Lake, NJ) with 10,000 minimum events collected per well. […] Percentage inhibition was calculated using the following formula: […]

[1] = system: human erythroid progenitors; assay: Colony-forming unit (CFU) assay, target-independent cytotoxicity; assay type: cell-based; settings: 336 h
Description: (§1) The non-specific (target-independent) cytotoxicity of ADCs in human erythroid and myeloid progenitors is of interest as, in the context of off-target toxicities, uptake and trafficking of intact ADCs into normal cells can occur by different mechanisms following administration of ADC in vivo, including target-dependent, for example, NaPi2b-dependent internalization, or target-independent mechanisms, for example, FcγR-dependent internalization or non-specific endocytosis (Mahalingaiah et al., Pharmacol Ther. 2019 August; 200:110-125). Profiling the in vitro target-independent cytotoxicity of ADCs to erythroid and myeloid progenitors may further understanding of their interactions in vivo.
(§2) Briefly, 20,000 human bone marrow-isolated HSC CD34+ were seeded in a semi-solid methylcellulose-based media formulation containing recombinant human interleukin-3 (rhIL-3, 10 ng/mL), rh granulocyte-macrophage-colony-stimulating factor (rhGM-CSF, 10 ng/mL), rh stem cell factor (rhSCF, 50 ng/mL) and Erythropoietin (Epo, 3 U/mL), to induce differentiation into clonogenic progenitors of human erythroid (CFU-erythroid CFU-E, burst-forming unit-erythroid BFU-E), granulocyte-monocyte (CFU-granulocyte-macrophage CFU-GM) and multipotential (CFU-granulocyte-erythroid-monocyte-megakaryocyte CFU-GEMM). […] After treatment, erythroid and myeloid colonies were assessed microscopically and scored. The colonies were divided into the following categories based on size and morphology: CFU-E, BFU-E, CFU-GM and CFU-GEMM. Percent survivability values were calculated based on the number of colonies after treatment over the number of colonies after solvent controls treatment and plotted against test article concentration using GraphPad Prism 9 software (GraphPad Software, La Jolla, CA). IC50 values were calculated based on a non-linear regression log(inhibitor) versus response, variable slope (four parameters) by GraphPad Prism 9.

[2] = system: human myeloid progenitors; assay: as above; assay type: cell-based; settings: 336 h
Description: as §1, §2

[3] = system: Construct 1 (chimeric human NaPi2b, region 239-259); assay: Binding region mapping, flow cytometry on transfected HEK293-6e cells; settings: 24 hours at 4° C.
Description: (§3) NaPi2b constructs containing deletions in the main extracellular loop of human NaPi2b, as well as chimeric NaPi2b/NaPi2c constructs concerning this main loop, were generated.
(§4) As a complementary strategy, two additional constructs were designed in which the relevant region of the main loop was deleted such as to mimic NaPi2c/NaPi2a main extracellular loop (Constructs 6-7 in Table 52.1). Clones were generated at GenScript Biotech (Piscataway, NJ).
(§5) Constructs were expressed in HEK293-6e cells as follows. Cells were maintained under standard culture conditions (37° C./5% CO2) with shaking at 110 rpm for suspension and cultured in FreeStyle™ 293 Expression Medium (Thermo Fisher Scientific, Waltham, MA) supplemented with 1% fetal bovine serum (Thermo Fisher Scientific, Waltham, MA) and 1× Penicillin-Streptomycin (Thermo Fisher Scientific, Waltham, MA). Cells were transfected with clones expressing the constructs listed in Table 52.1, at 1 μg of DNA per 1 million cells, using 293Fectin™ Transfection Reagent (Thermo Fisher Scientific, Waltham, MA) and Opti-MEM™ I Reduced Serum Medium (Thermo Fisher Scientific, Waltham, MA), and incubated for 24 hours under standard culture conditions (37° C./5% CO2/110 rpm). Following transfection, cells were seeded at 50,000 cells/well in conical-bottom 96-well plates and treated with a serial dilution of test antibody for 24 hours at 4° C. to prevent internalization. Cells were treated with final concentrations of all humanized antibodies of 200, 20, or 2 nM. Cells were treated with final concentrations of the reference anti-NaPi2a rabbit antibody of 50, 5, or 0.5 nM. […] Following incubation and washing, fluorescence was detected by flow cytometry on a BD LSRFortessa™ Cell Analyzer (BD Biosciences, Franklin Lake, NJ) with 1,000 minimum events collected per well. […] Background-subtracted AF647 Mean Fluorescence Intensity (MFI) values were calculated by subtracting the average MFI of three technical replicates of unstained (no primary antibody) cells.

[4] = system: Construct 2 (chimeric human NaPi2b, region 280-301); assay: as above; settings: 24 hours at 4° C.
Description: as §3, §4, §5

[5] = system: Construct 4 (chimeric human NaPi2b, region 341-358); assay: as above; settings: antibody 20.0 nM, 24 hours at 4° C.
Description: as §3, §4, §5

Palivizumab [v16955 (negative control)]
% Inhibition vs. irrelevant mAb, labeled detection antibody v16955 (negative control) (human NaPi2b): 0%
% Inhibition vs. irrelevant mAb, labeled detection antibody v18992 (MX35) (human NaPi2b): 0%
% Inhibition vs. irrelevant mAb, labeled detection antibody v18993 (lifastuzumab) (human NaPi2b): 0%
% Inhibition vs. irrelevant mAb, labeled detection antibody v23855 (human NaPi2b): 0%

CC[C@@]1(O)C(=O)OCc2c1cc1n(c2=O)Cc2c-1nc1cc(F)c(C)cc1c2CNC(=O)OCCO [Compound 139, 2-hydroxyethyl (S)-((4-ethyl-8-fluoro-4-hydroxy-9-methyl-3,14-dioxo-3,4,12,14-tetrahydro-1H-pyrano[3′,4′:6,7]indolizino[1,2-b]quinolin-11-yl)methyl)carbamate]
IC50 ([1]; 14 days incubation, read-out: Human IC50, Erythroid progenitors): 1.32 nM
IC50 ([1]; 14 days, read-out: IC50, erythroid progenitors): 1.32 nM
IC50 ([2]; 14 days incubation, read-out: Human IC50, Myeloid progenitors): 1.75 nM
IC50 ([2]; 14 days, read-out: IC50, myeloid progenitors): 1.75 nM

lifastuzumab [lifastuzumab (v18993)]
Background-Subtracted AF647 Mean Fluorescence Intensity ([3]; antibody 2.0 nM): 1,232
Background-Subtracted AF647 Mean Fluorescence Intensity ([3]; antibody 20.0 nM): 1,697
Background-Subtracted AF647 Mean Fluorescence Intensity ([3]; antibody 200.0 nM): 1,508
Background-Subtracted AF647 Mean Fluorescence Intensity ([4]; antibody 20.0 nM): 1,198
Background-Subtracted AF647 Mean Fluorescence Intensity ([4]; antibody 200.0 nM): 1,232
Background-Subtracted AF647 Mean Fluorescence Intensity [5]: 1,049
